HELM strings list units from the 5' end as sugar, base in round brackets, then linkage (d deoxyribose, r ribose, m 2'-O-methyl, p phosphodiester). Strings are as the collection lists them; they lack the last nucleoside at the 3' end of the tested compound. [moe] = 2'-O-(2-methoxyethyl) (MOE); [sp] = phosphorothioate linkage; [m5C] = 5-methylcytosine

This data set deals with UBE3A-ATS. In words: mouse, dose not given. The note with it: ASO.
In turn, “RNA1{[moe](T)[sp].[moe]([m5C])p.[moe](A)p.[moe](G)p.[moe](T)[sp].d(T)[sp].d(A)[sp].d(G)[sp].d(G)[sp].d(T)[sp].d(T)[sp].d(A)[sp].d(G)[sp].[moe](T)p.[moe](G)p.[moe]([m5C])[sp].[moe](A)}$$$$ (last 3' nucleoside missing)” had a 3 h FOB score of 4.3 score 0-7.

In turn, “RNA1{[moe](G)[sp].[moe](G)p.[moe](T)p.[moe](T)p.[moe](A)p.d(A)[sp].d(G)[sp].d(T)[sp].d([m5C])[sp].d(T)[sp].d(G)[sp].d([m5C])[sp].d(T)[sp].d([m5C])[sp].d(T)[sp].[moe](T)p.[moe](T)p.[moe]([m5C])[sp].[moe](A)}$$$$ (last 3' nucleoside missing)” displayed a 3 h FOB score of 4 score 0-7.

On to “RNA1{[moe](T)[sp].[moe]([m5C])p.[moe](A)p.[moe](G)p.[moe]([m5C])p.d(A)[sp].d([m5C])[sp].d(T)[sp].d(T)[sp].d(A)[sp].d(G)[sp].d(G)[sp].d(T)[sp].d(A)[sp].d(G)[sp].[moe](T)p.[moe](T)p.[moe]([m5C])[sp].[moe](A)}$$$$ (last 3' nucleoside missing)”, for which the 3 h FOB score is 5 score 0-7.

With “RNA1{[moe](G)[sp].[moe](G)p.[moe](T)p.[moe]([m5C])[sp].d(A)[sp].d(T)[sp].d([m5C])[sp].d(T)[sp].d([m5C])[sp].d(G)[sp].d(G)[sp].d(G)[sp].[moe](T)p.[moe](A)p.[moe](T)p.[moe](A)[sp].[moe](T)}$$$$ (last 3' nucleoside missing)”, the 3 h FOB score is 6.3 score 0-7.

As for “RNA1{[moe]([m5C])[sp].[moe](T)p.[moe](T)p.[moe](A)p.[moe](G)p.d(G)[sp].d([m5C])[sp].d(A)[sp].d(A)[sp].d(T)[sp].d(G)[sp].d(G)[sp].d(A)[sp].d([m5C])[sp].d(T)[sp].[moe](T)p.[moe](A)p.[moe](G)[sp].[moe](T)}$$$$ (last 3' nucleoside missing)”, the 3 h FOB score worked out at 1 score 0-7.

Consider “RNA1{[moe](A)[sp].[moe](G)p.[moe]([m5C])p.[moe]([m5C])[sp].d(A)[sp].d(G)[sp].d(G)[sp].d(T)[sp].d(G)[sp].d(T)[sp].d([m5C])[sp].d(T)[sp].[moe](T)p.[moe](A)p.[moe](T)p.[moe](A)[sp].[moe](T)}$$$$ (last 3' nucleoside missing)”, for which the 3 h FOB score was 6 score 0-7.

“RNA1{[moe](T)[sp].[moe](T)p.[moe](G)p.[moe](G)p.[moe](T)p.[moe]([m5C])p.d(A)[sp].d(T)[sp].d([m5C])[sp].d(T)[sp].d([m5C])[sp].d(G)[sp].d(G)[sp].d(G)[sp].d(T)[sp].d(A)[sp].[moe](T)p.[moe](A)[sp].[moe](T)}$$$$ (last 3' nucleoside missing)”: the 3 h FOB score was determined as 6.5 score 0-7.

“RNA1{[moe]([m5C])[sp].[moe](T)p.[moe]([m5C])p.[moe](A)p.d(G)[sp].d(T)[sp].d(T)[sp].d(A)[sp].d(G)[sp].d(G)[sp].d(T)[sp].d(T)[sp].d(A)[sp].d(G)[sp].[moe](T)p.[moe](G)p.[moe]([m5C])p.[moe](A)[sp].[moe]([m5C])}$$$$ (last 3' nucleoside missing)” came in with a 3 h FOB score of 4 score 0-7.

Turning to “RNA1{[moe](G)[sp].[moe](T)p.[moe]([m5C])p.[moe](T)p.[moe]([m5C])p.d(T)[sp].d(G)[sp].d([m5C])[sp].d(T)[sp].d([m5C])[sp].d(A)[sp].d(G)[sp].d(T)[sp].d(T)[sp].d(A)[sp].[moe](G)p.[moe](G)p.[moe](T)[sp].[moe](T)}$$$$ (last 3' nucleoside missing)”, the 3 h FOB score is 1 score 0-7.

“RNA1{[moe](T)[sp].[moe](T)p.[moe](T)p.[moe](T)p.[moe](T)p.[moe]([m5C])p.d([m5C])[sp].d(A)[sp].d(T)[sp].d(T)[sp].d(T)[sp].d(T)[sp].d(T)[sp].d([m5C])[sp].d(T)[sp].d([m5C])[sp].[moe](T)p.[moe](T)[sp].[moe](A)}$$$$ (last 3' nucleoside missing)” showed a 3 h FOB score of 1 score 0-7.

For “RNA1{[moe]([m5C])[sp].[moe](T)p.[moe](T)p.[moe](T)p.[moe](A)p.d(G)[sp].d(T)[sp].d(A)[sp].d(T)[sp].d(G)[sp].d(T)[sp].d([m5C])[sp].d(G)[sp].d(A)[sp].d(G)[sp].[moe](A)p.[moe](A)p.[moe]([m5C])[sp].[moe](T)}$$$$ (last 3' nucleoside missing)”, the 3 h FOB score is 5 score 0-7.

In turn, “RNA1{[moe](A)[sp].[moe](G)p.[moe](T)p.[moe](A)p.[moe](T)p.d(A)[sp].d(G)[sp].d(A)[sp].d(T)[sp].d(G)[sp].d([m5C])[sp].d([m5C])[sp].d(T)[sp].d([m5C])[sp].d(T)[sp].[moe]([m5C])p.[moe]([m5C])p.[moe](T)[sp].[moe]([m5C])}$$$$ (last 3' nucleoside missing)” had a 3 h FOB score of 3.3 score 0-7.

The substance “RNA1{[moe](G)[sp].[moe](T)p.[moe](G)p.[moe](A)p.[moe](G)p.d([m5C])[sp].d(T)[sp].d(A)[sp].d(T)[sp].d([m5C])[sp].d(T)[sp].d(G)[sp].d(T)[sp].d(A)[sp].d([m5C])[sp].[moe](A)p.[moe](A)p.[moe](A)[sp].[moe](A)}$$$$ (last 3' nucleoside missing)” had a 3 h FOB score of 3.2 score 0-7.

For the substance “RNA1{[moe](A)[sp].[moe](T)p.[moe](G)p.[moe](G)p.[moe](G)p.d(A)[sp].d(G)[sp].d([m5C])[sp].d(T)[sp].d([m5C])[sp].d(T)[sp].d(G)[sp].d(G)[sp].d(A)[sp].d(A)[sp].[moe](A)p.[moe](A)p.[moe]([m5C])[sp].[moe](A)}$$$$ (last 3' nucleoside missing)”, the 3 h FOB score amounted to 4 score 0-7.

As to “RNA1{[moe](G)[sp].[moe](A)p.[moe](T)p.[moe](T)p.[moe](A)p.d(T)[sp].d([m5C])[sp].d(T)[sp].d([m5C])[sp].d(A)[sp].d(G)[sp].d(A)[sp].d([m5C])[sp].d(A)[sp].d(T)[sp].[moe](G)p.[moe]([m5C])p.[moe]([m5C])[sp].[moe](A)}$$$$ (last 3' nucleoside missing)”, the 3 h FOB score was determined as 3.2 score 0-7.

Consider “RNA1{[moe](G)[sp].[moe](T)p.[moe](T)p.[moe](T)p.[moe](T)p.[moe](T)p.d([m5C])[sp].d([m5C])[sp].d(A)[sp].d(T)[sp].d(T)[sp].d(T)[sp].d(T)[sp].d(T)[sp].d([m5C])[sp].d(T)[sp].[moe]([m5C])p.[moe](T)[sp].[moe](T)}$$$$ (last 3' nucleoside missing)”, for which the 3 h FOB score amounted to 0 score 0-7.

“RNA1{[moe]([m5C])[sp].[moe](A)p.[moe](G)p.[moe](T)p.[moe](T)p.d(T)[sp].d(T)[sp].d([m5C])[sp].d(G)[sp].d([m5C])[sp].d([m5C])[sp].d([m5C])[sp].d(G)[sp].d(T)[sp].d(T)[sp].[moe](A)p.[moe]([m5C])p.[moe]([m5C])[sp].[moe](T)}$$$$ (last 3' nucleoside missing)” registered a 3 h FOB score of 5 score 0-7.

With “RNA1{[moe](G)[sp].[moe](G)p.[moe](T)p.[moe]([m5C])p.d(A)[sp].d(A)[sp].d([m5C])[sp].d([m5C])[sp].d(A)[sp].d(A)[sp].d(T)[sp].d(T)[sp].d(T)[sp].d(G)[sp].[moe]([m5C])p.[moe](T)p.[moe](A)p.[moe](T)[sp].[moe](T)}$$$$ (last 3' nucleoside missing)”, the 3 h FOB score is 4.7 score 0-7.

“RNA1{[moe](T)[sp].[moe](T)p.[moe](A)p.[moe](G)p.[moe]([m5C])p.d([m5C])[sp].d(A)[sp].d(T)[sp].d([m5C])[sp].d(A)[sp].d(T)[sp].d(T)[sp].d(T)[sp].d(T)[sp].d(A)[sp].[moe](T)p.[moe](T)p.[moe]([m5C])[sp].[moe](T)}$$$$ (last 3' nucleoside missing)”: the 3 h FOB score was 0 score 0-7.

On to “RNA1{[moe](G)[sp].[moe](T)p.[moe](G)p.[moe](G)p.[moe](T)p.d(T)[sp].d(G)[sp].d([m5C])[sp].d([m5C])[sp].d(T)[sp].d(T)[sp].d(A)[sp].d(G)[sp].d(T)[sp].d(A)[sp].[moe](T)p.[moe](T)p.[moe](A)[sp].[moe]([m5C])}$$$$ (last 3' nucleoside missing)”, for which the 3 h FOB score amounted to 2.2 score 0-7.

As for “RNA1{[moe](T)[sp].[moe](G)p.[moe](T)p.[moe](G)p.[moe](A)p.d(G)[sp].d(A)[sp].d(T)[sp].d(A)[sp].d(A)[sp].d(T)[sp].d(T)[sp].d([m5C])[sp].d(A)[sp].d(G)[sp].[moe](G)p.[moe](A)p.[moe](G)[sp].[moe](G)}$$$$ (last 3' nucleoside missing)”, the 3 h FOB score was 5 score 0-7.

For “RNA1{[moe](G)[sp].[moe](T)p.[moe](G)p.[moe](T)p.[moe](G)p.d(T)[sp].d(T)[sp].d(T)[sp].d(T)[sp].d(T)[sp].d([m5C])[sp].d([m5C])[sp].d(A)[sp].d(T)[sp].d(T)[sp].[moe](T)p.[moe](T)p.[moe](T)[sp].[moe]([m5C])}$$$$ (last 3' nucleoside missing)”, the 3 h FOB score amounted to 0 score 0-7.

With “RNA1{[moe](T)[sp].[moe](G)p.[moe](T)p.[moe](G)p.[moe](T)p.[moe](G)p.d(T)[sp].d(T)[sp].d(T)[sp].d(T)[sp].d(T)[sp].d([m5C])[sp].d([m5C])[sp].d(A)[sp].d(T)[sp].d(T)[sp].[moe](T)p.[moe](T)[sp].[moe](T)}$$$$ (last 3' nucleoside missing)”, the 3 h FOB score was determined as 0 score 0-7.

Take “RNA1{[moe](T)[sp].[moe]([m5C])p.[moe](T)p.[moe](T)p.[moe](A)p.d([m5C])[sp].d(T)[sp].d(G)[sp].d(A)[sp].d(T)[sp].d(T)[sp].d([m5C])[sp].d(A)[sp].d(G)[sp].d([m5C])[sp].[moe]([m5C])p.[moe](A)p.[moe](T)[sp].[moe](T)}$$$$ (last 3' nucleoside missing)”: the 3 h FOB score was 4 score 0-7.

As for “RNA1{[moe](A)[sp].[moe](G)p.[moe](G)p.[moe]([m5C])p.[moe](A)p.d(A)[sp].d(T)[sp].d(G)[sp].d(G)[sp].d(A)[sp].d([m5C])[sp].d(T)[sp].d(T)[sp].d(A)[sp].d(G)[sp].[moe](T)p.[moe](A)p.[moe]([m5C])[sp].[moe](A)}$$$$ (last 3' nucleoside missing)”, the 3 h FOB score was 4 score 0-7.

In turn, “RNA1{[moe](G)[sp].[moe](T)p.[moe](A)p.[moe](T)p.[moe](G)p.d(G)[sp].d(T)[sp].d(A)[sp].d(T)[sp].d([m5C])[sp].d(T)[sp].d(T)[sp].d(G)[sp].d([m5C])[sp].d(A)[sp].[moe](G)p.[moe](T)p.[moe](A)[sp].[moe](G)}$$$$ (last 3' nucleoside missing)” displayed a 3 h FOB score of 5.2 score 0-7.

The record behind these values is the OligoGym collection.
